The values below come from patent US9789110B2, “Diacylglycerol acyltransferase 2 inhibitors” (PFIZER INC., priority 2014, dated 2017).

Read-outs that look alike come from different tables or passages of the source.

The term IC50 denotes the concentration that inhibits the measured activity by half.

Experiment [1] has as its target DGAT2 in primary human hepatocytes (Homo sapiens (Human), UniProt Q96PD7). The experiment is described as follows: IC50 for DGAT2 inhibitors in human hepatocytes, [14C]-glycerol incorporation into lipids. It counts as cell-based. The procedure: For evaluation of the effects of DGAT2 inhibitors in a cell-based setting, cryopreserved human hepatocytes (Lot QOC and NON, Celsis, Chicago, Ill.) were thawed and plated onto type I collagen-coated plates according to the manufacturer's instructions. After 24 hours overnight recovery period, the cells were overlayed with media containing 250 μg/ml Matrigel (BD Biosciences, San Jose, Calif.). The following day, media was aspirated and replaced with serum-free Williams Media E (Life Technologies, Grand Island, N.Y.) containing 400 μM sodium dodecanoate (Sigma-Aldrich, St. Louis, Mo.). Forty minutes later, DGAT2 inhibitors (prepared as 100× stocks in 25% DMSO, 75% Williams' Media E) were added to the desired final concentration. […] After a 20 minute preincubation, 0.2 μCi [1,3-^14C]-glycerol glycerol (American Radio Chemicals, St. Louis, Mo.) was added to each well and mixed by gentle pipetting prior to a 3 hour incubation. At this point, media was aspirated and the cells were lysed in isopropyl alcohol: tetrahydrofuran (9:1) prior to centrifugation at 3000 rpm for 5 minutes. Radiolabeled lipids were resolved using a 2-solvent system by thin layer chromatography using standard technique (solvent 1 contained ethyl acetate:isopropyl alcohol:chloroform:methanol:0.25% potassium chloride in water (100:100:100:40.2:36.1, v/v/v/v) and solvent 2 contained hexane: diethyl ether: acetic acid (70:27:3, v/v/v)). After separation, radiolabeled lipids were visualized using a Molecular Dynamics' PhosphorImager system. The half maximal inhibitory concentrations (IC50 values) were determined using GraphPad Prism (GraphPad Software, Inc., La Jolla, Calif.).
Table 4 below provides IC50 values for the Examples in accordance with the above-described assay. Results were reported as average IC50 values, low and high IC50 range (95% confidence interval).

A further experiment concerns the target hDGAT2 (Homo sapiens (Human), UniProt Q96PD7). Briefly: In vitro DGAT2 assay, hDGAT2 membrane fraction, [14C]decanoyl-CoA scintillation readout. It counts as biochemical. The following applies: geometric mean; FLAG-hDGAT2 membrane fraction; 2 h preincubation; read-out: IC50 for inhibition of DGAT2. The procedure: Recombinant baculovirus for the FLAG-tagged hDGAT2 was generated in SF9 insect cells using Bac-to-Bac baculovirus expression system (Invitrogen) according to the manufacturer's protocol. For the expression of hDGAT2, SF9 cells (20 L) grown in Sf90011 media were infected with hDGAT2 baculovirus at a multiplicity of infection of 1 in a Wave Bioreactor System 20/50P wave bag (GE Healthcare). After 40 hours of infection, the cells were then harvested by centrifugation at 5,000×g. The cell pellets were washed by resuspending in phosphate buffered saline (PBS) and collected by centrifugation at 5,000×g. The cell paste was flash frozen in liquid N2 and stored at −80° C. until needed. All operations below were at 4° C. unless otherwise noted. The cells were resuspended in lysis buffer (50 mM Tris-HCl, pH 8.0, 250 mM sucrose) including 1 mM ethylenediaminetetraacetic acid (EDTA) and the complete protease inhibitor cocktail (Roche Diagnostics) at a ratio of 3 ml buffer per 1 g cell paste. The cells were lysed by dounce homogenizer. The cell debris was removed by centrifugation at 1,000×g for 20 min, and the supernatant was centrifuged at 100,000×g for 1 hour. The resulting pellet was rinsed three times by filling ultracentrifuge tubes to the top with ice cold PBS before decanting. The washed pellet was resuspended with gentle stirring for 1 hour in lysis buffer containing 8 mM 3-[(3-cholamidopropyl)dimethylammonio]-1-propanesulfonate (CHAPS) at a ratio of 1 mL buffer per 1 g of original cell paste and centrifuged again at 100,000×g for 1 hour. The resulting supernatant was aliquotted, flash frozen in liquid N2, and stored at −80° C. until use.
For determination of IC50 values, the reactions were carried out in 384-well white Polyplates (Perkin Elmer) in a total volume of 20 μL. To […] compounds dissolved in 100% DMSO and spotted at the bottom of each well, 5 μL of 0.04% bovine serum albumin (BSA) (fatty acid free, Sigma Aldrich) was added and the mixture was incubated at room temperature for 20 minutes. To this mixture, 10 μL of hDGAT2 membrane fraction (0.01 mg/mL) diluted in 100 mM Hepes-NaOH, pH 7.4, 20 mM MgCl2 containing 200 nM methyl arachidonyl fluorophosphonate (Cayman Chemical; dried from ethyl acetate stock solution under argon gas and dissolved in DMSO as 5 mM stock) was added. After this mixture was preincubated at room temperature for 2 hours, DGAT2 reactions were initiated by the addition of 4 μL of substrates containing 30 μM [1-^14C]decanoyl-CoA (custom-synthesized by Perkin Elmer, 50 mCi/mmol) and 125 μM 1,2-didecanoyl-sn-glycerol (Avanti Polar Lipids) dissolved in 12.5% acetone. The reaction mixtures were incubated at room temperature for 40 min and the reactions were stopped by addition of 5 μL of 1% H3PO4. After the addition of 45 μL MicroScint-E (Perkin-Elmer), plates were sealed with Top Seal-A covers (Perkin-Elmer) and phase partitioning of substrates and products was achieved using a HT-91100 microplate orbital shaker (Big Bear Automation, Santa Clara, Calif.). Plates were centrifuged at 2,000×g for 1 min in an Allegra 6R Centrifuge (Beckman Coulter) and then were sealed again with fresh covers before reading in a 1450 Microbeta Wallac Trilux Scintillation Counter (Perkin Elmer). DGAT2 activity was measured by quantifying the generated product [^14C]tridecanoylglycerol in the upper organic phase.
Inhibitors were tested at eleven different concentrations to generate IC50 values for each compound.

[2] abbreviates: average, cryopreserved human hepatocytes, selective DGAT1 inhibitor 3 μM in all wells, 3 hour incubation, read-out: IC50 in primary human hepatocytes.

Sequence of hDGAT2 (Q96PD7 whole entry): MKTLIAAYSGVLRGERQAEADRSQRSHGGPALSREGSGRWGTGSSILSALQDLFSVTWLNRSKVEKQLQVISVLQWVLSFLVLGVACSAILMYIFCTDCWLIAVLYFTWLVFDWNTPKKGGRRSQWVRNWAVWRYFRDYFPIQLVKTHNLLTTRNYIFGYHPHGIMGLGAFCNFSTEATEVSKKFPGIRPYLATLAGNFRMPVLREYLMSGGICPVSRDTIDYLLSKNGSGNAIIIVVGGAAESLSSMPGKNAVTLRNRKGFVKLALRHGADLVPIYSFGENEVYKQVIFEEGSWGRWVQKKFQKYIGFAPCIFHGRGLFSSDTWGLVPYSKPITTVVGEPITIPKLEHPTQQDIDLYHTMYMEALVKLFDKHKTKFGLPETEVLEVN
Sequence of DGAT2 in primary human hepatocytes (Q96PD7 whole entry): as above

As to `CCOc1ccccc1O[C@@H]1CCCN(c2ncc(C(=O)NCc3cc(C(=O)O)ccc3C)cn2)C1` [Example 9, (R)-3-((2-(3-(2-ethoxyphenoxy)piperidin-1-yl)pyrimidine-5-carboxamido)methyl)-4-methylbenzoic acid], the results for the 50% inhibitory concentration (IC50) (in experiment [1] (setting [2]); at hDGAT2) were 57 nM and 38.1 nM, respectively.
The matching figures for `CCOc1ccccc1O[C@@H]1CCCN(c2ncc(C(=O)NCc3cc(C(=O)O)ccc3OC)cn2)C1` [Example 11, (R)-3-((2-(3-(2-ethoxyphenoxy)piperidin-1-yl)pyrimidine-5-carboxamido)methyl)-4-methoxybenzoic acid]: 6.8 nM and 122 nM.
For `CCOc1ccccc1O[C@@H]1CCCN(c2ncc(C(=O)NCc3cc(O)no3)cn2)C1` [Example 19.2, (R)-2-(3-(2-ethoxyphenoxy)piperidin-1-yl)-N-((3-hydroxyisoxazol-5-yl)methyl)pyrimidine-5-carboxamide], the 50% inhibitory concentration (IC50) was determined as 341 nM in experiment [1] and 262 nM at hDGAT2.
On to `CCNC(=O)c1cnc(N2CCC[C@@H](Oc3ccc(C#N)cc3OCC)C2)nc1` [Example 17, (R)-2-(3-(4-cyano-2-ethoxyphenoxy)piperidin-1-yl)-N-ethylpyrimidine-5-carboxamide], for which the IC50 amounted to 19.8 nM in experiment [1] (setting [2]) and 182 nM on hDGAT2.
The matching figures for `CCOc1ccccc1O[C@@H]1CCCN(c2ccc(C(=O)NCc3cccc(C(=O)O)c3)cn2)C1` [Example 7, (R)-3-((6-(3-(2-ethoxyphenoxy)piperidin-1-yl)nicotinamido)methyl)benzoic acid]: 19.2 nM and 149 nM.
With `CCOc1ccccc1O[C@@H]1CCCN(c2ncc(C(=O)NCc3cccc(CC(=O)O)c3)cn2)C1` [Example 18.2, (R)-2-(3-((2-(3-(2-ethoxyphenoxy)piperidin-1-yl)pyrimidine-5-carboxamido)methyl)phenyl)acetic acid], the IC50 in experiment [1] (setting [2]) amounted to 45.7 nM; on hDGAT2 it was 156 nM.
